Like-named read-outs stand apart in the source and are kept apart here.
Tests used:
[1] = tested on: V561M FGFR1; assay: Intrinsic protein fluorescence quenching titration, V561M FGFR1; format: binding, Human; settings: for fold decrease in affinity (increase in Kd) for V561M relative to WT FGFR1: Kd V561M FGFR1 versus Kd WT FGFR1
[2] = tested on: FGFR1; settings: read-out: IC50 (cells); cited from earlier work
[3] = tested on: FGFR1; settings: read-out: IC50 (enzyme); cited from earlier work

Row | Compound | fold greater loss of affinity for E3810 compared to AZD4547 conferred by the V561M FGFR1 mutation ([1]; E3810 versus AZD4547) | fold decrease in affinity (increase in Kd) for V561M relative to WT FGFR1 [1] [fold] | IC50 [2] [nM] | IC50 [3] [nM]
1 | CNC(=O)c1cccc2cc(Oc3ccnc4cc(OCC5(N)CC5)c(OC)cc34)ccc12 [E3810] | over 150 fold | 5000 |  | 
2 | AZD4547 |  | 32 | 12 | 0.2
